Assay results taken from publication PMC9138599, “Clade-Specific Alterations within the HIV-1 Capsid Protein with Implications for Nuclear Translocation” (Biomolecules, 2022).
Read-outs that look alike come from different tables or passages of the source.

Key:
[1] = target: HIV-1 CA hexamer from clade C (92BR025.8) (Human immunodeficiency virus type 1 group M subtype C, UniProt O12157, E175C/M315A/P144C/W314A); experiment: SPR binding to immobilized HIV-1 CA hexamer, clade C
[2] = system: HIV-1 CA hexamer from clade A2 (CDKTB48); type: binding; conditions: SPR
[3] = system: monomeric HIV-1 CA protein, clade A2 (CDKTB48); experiment: In vitro CA assembly (turbidity) assay, clade A2; type: biochemical; conditions: 3 M NaCl
Experimental: (§1) In vitro assembly of the monomeric HIV-1 CA proteins was performed using a modification of the standard CA turbidity assembly assay [62, 63, 64, 65, 66]. This assay relies upon the fact that the addition of high salt to HIV-1 CA protein causes self-assembly that can be monitored and quantified as the increase in turbidity over time, as described in Kortagere et al. [61, 67]. Briefly, 75 µL of buffer was prepared, containing a final concentration of 50 mM NaH2PO4 pH 8.0 and various concentrations (1–5 M) of NaCl to assess the optimal concentration of salt needed to initiate assembly after the addition of the purified clade variants. To initiate the assembly reaction, 25 µL of 120 µM purified capsid was added to a final CA concentration of 30 µM (including matching DMSO concentrations). In the presence of compounds, the in vitro reaction contained 50 mM NaH2PO4 pH 8.0, 30 µM CA protein, 50 µM inhibitor, 3% DMSO, and 3 M NaCl. Readings were then taken at 350 nm every 30 s for 20 min to measure the increase in turbidity over time. The OD at 350 nm over the first 2 min was then plotted and fit with a linear regression to calculate the initial velocity (AU/min) of CA assembly.

[4] = target: monomeric HIV-1 CA protein, clade B (NL4-3) (Human immunodeficiency virus type 1 group M subtype B, UniProt P12493)
Experimental: as §1

[5] = system: HIV-1 CA hexamer from clade D (94UG114.1); type: binding; conditions: SPR
[6] = system: HIV-1 CA hexamer from clade A1 (92UG037.1); type: binding; conditions: SPR
[7] = target: T1, monomeric HIV-1 CA protein, clade C (92BR025.8) (Human immunodeficiency virus type 1 group M subtype C, UniProt O12157); experiment: In vitro CA assembly (turbidity) assay, clade C; type: biochemical; conditions: clade C CA 30 µM, 50 µM inhibitor, 3 M NaCl, first 120 s, n = 3
T1 construct: hexahistidine (C); made in house; host or cells: E. coli BL21 (DE3) RIL
Experimental: as §1

[8] = system: monomeric HIV-1 CA protein, clade D (94UG114.1); experiment: In vitro CA assembly (turbidity) assay, clade D; type: biochemical; conditions: clade D CA 30 µM, 50 µM inhibitor, 3 M NaCl, first 120 s, n = 3
Experimental: as §1

[9] = target: HIV-1 CA hexamer from clade B (NL4-3) (Human immunodeficiency virus type 1 group M subtype B, UniProt P12493, A146C/E177C/M317A/W316A); experiment: SPR binding to immobilized HIV-1 CA hexamer, clade B
[10] = system: monomeric HIV-1 CA protein, clade A1 (92UG037.1); experiment: In vitro CA assembly (turbidity) assay, clade A1; type: biochemical; conditions: 3 M NaCl
Experimental: as §1

[11] = target: tri-hexameric interface of CA hexamers; parameters: method as in PMID 34835048; conditions: RRR patch binding into tri-hexameric interface; cited from earlier work
[12] = global fit, n = 3, read-out: KD Kinetic/Global
[13] = Langmuir isotherm equilibrium fit, 25 °C, n = 3, read-out: KD Equilibrium
[14] = SPR, clade B (NL4.3) hexamer, 1:1 binding model, n = 3

Chain of HIV-1 CA hexamer from clade C (92BR025.8) (O12157 131-361 P144C/E175C/W314A/M315A): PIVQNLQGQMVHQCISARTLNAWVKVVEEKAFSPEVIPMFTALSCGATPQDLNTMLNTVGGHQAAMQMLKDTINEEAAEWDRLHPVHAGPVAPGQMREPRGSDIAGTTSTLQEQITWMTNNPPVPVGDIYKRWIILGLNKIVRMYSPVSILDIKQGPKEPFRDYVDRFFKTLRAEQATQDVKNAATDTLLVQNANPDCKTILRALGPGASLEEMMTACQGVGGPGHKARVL
T1 sequence (O12157 131-361): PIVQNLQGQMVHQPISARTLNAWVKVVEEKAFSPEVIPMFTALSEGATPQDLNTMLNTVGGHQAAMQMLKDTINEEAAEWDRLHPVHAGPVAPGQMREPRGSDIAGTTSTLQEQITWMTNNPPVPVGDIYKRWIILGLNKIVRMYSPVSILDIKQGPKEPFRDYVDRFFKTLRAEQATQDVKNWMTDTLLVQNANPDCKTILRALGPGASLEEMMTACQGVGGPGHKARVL

CC(C)[C@H](NC(=O)CNC(=O)[C@H](CO)NC(=O)[C@@H]1CCCN1C(=O)[C@H](CO)NC(=O)[C@H](CC(N)=O)NC(=O)[C@H](CC(N)=O)NC(=O)[C@@H](N)[C@@H](C)O)C(=O)N[C@@H](Cc1ccccc1)C(=O)N[C@H](C(=O)N[C@@H](Cc1ccccc1)C(=O)NCC(=O)N[C@@H](C)C(=O)N[C@@H](CC(N)=O)C(=O)N[C@@H](CO)C(=O)N[C@@H](CO)C(=O)N[C@H](C(=O)O)[C@@H](C)O)[C@@H](C)O [NUP-153]
Kd ([1]; Langmuir isotherm equilibrium fit, n = 3, read-out: KD Equilibrium): 503000 nM | Kd [1, 12]: 881000 nM

PF-74
koff ([2]; 1:1 binding model, n = 3): 0.0916 s⁻¹ | kon ([2]; 1:1 binding model, n = 3): 669000 M⁻¹ s⁻¹ | Kd [2, 13]: 138 nM | Kd [2, 12]: 139 nM | fold increase in assembly rate (initial velocity) vs Apo ([3]; clade A2, 50 µM inhibitor, initial 120 s): 1.3 fold | Initial Velocity PF-74 ([3]; clade A2 CA 30 µM, 50 µM inhibitor, first 120 s, n = 3): 0.017 ± 0.002 AU/min | Initial Velocity PF-74 [4]: 0.043 ± 0.009 AU/min | koff ([5]; 1:1 binding model, n = 3): 0.0395 s⁻¹ | kon ([5]; 1:1 binding model, n = 3): 773000 M⁻¹ s⁻¹ | Kd [5, 13]: 51 nM | Kd [5, 12]: 51 nM | koff ([6]; 1:1 binding model, n = 3): 0.647 s⁻¹ | kon ([6]; 1:1 binding model, n = 3): 615000 M⁻¹ s⁻¹ | Kd [6, 13]: 716 nM | Kd [6, 12]: 946 nM | koff ([1]; 1:1 binding model, n = 3): 0.0754 s⁻¹ | kon ([1]; 1:1 binding model, n = 3): 228000 M⁻¹ s⁻¹ | Kd [1, 13]: 354 nM | Kd [1, 12]: 330 nM | Initial Velocity PF-74 [7]: 0.039 ± 0.007 AU/min | Initial Velocity PF-74 [8]: 0.050 ± 0.008 AU/min | fold tighter binding to clade B protein compared to clade A1 protein ([9]; SPR data, clade B vs clade A1): ~ 20 fold | koff [9, 14]: 0.0363 s⁻¹ | kon [9, 14]: 756000 M⁻¹ s⁻¹ | fold increase in assembly rate (initial velocity) vs Apo ([10]; clade A1, 50 µM inhibitor, initial 120 s): 1.5 fold | Initial Velocity PF-74 ([10]; clade A1 CA 30 µM, 50 µM inhibitor, first 120 s, n = 3): 0.034 ± 0.001 AU/min

RRR patch: highly positively charged RRR motif at the C-terminus of NUP-153 binding the tri-hexameric interface of CA (FSGRKIKTAVRRRK; UniProt P49790 1462-1475, looked up, fragment)
Kd [11]: 800 nM
